ChEMBL document CHEMBL1138138, “Piperazinyl oxime ethers as NK-1 receptor antagonists” (Bioorg Med Chem Lett, 2006)

Columns and labels:
Substance-P receptor [1] = target: T1, Substance-P receptor (Homo sapiens, UniProt P25103); assay: Displacement of [3H] labelled Substance P from cloned human NK1 receptor expressed in CHO cells; type: cell-based
Substance-P receptor [2] = target: T1, Substance-P receptor; assay: Effect on IP3 turnover by phospholipaseC positively linked to human NK1 receptor expressed in CHO cells; type: functional, cell-based; settings: read-out: pA2 (converted)
Gerbil, jird = assay: Inhibition of GR-73632 induced foot tapping in po dosed gerbils; type: functional; settings: Meriones

T1 sequence (P25103 whole entry): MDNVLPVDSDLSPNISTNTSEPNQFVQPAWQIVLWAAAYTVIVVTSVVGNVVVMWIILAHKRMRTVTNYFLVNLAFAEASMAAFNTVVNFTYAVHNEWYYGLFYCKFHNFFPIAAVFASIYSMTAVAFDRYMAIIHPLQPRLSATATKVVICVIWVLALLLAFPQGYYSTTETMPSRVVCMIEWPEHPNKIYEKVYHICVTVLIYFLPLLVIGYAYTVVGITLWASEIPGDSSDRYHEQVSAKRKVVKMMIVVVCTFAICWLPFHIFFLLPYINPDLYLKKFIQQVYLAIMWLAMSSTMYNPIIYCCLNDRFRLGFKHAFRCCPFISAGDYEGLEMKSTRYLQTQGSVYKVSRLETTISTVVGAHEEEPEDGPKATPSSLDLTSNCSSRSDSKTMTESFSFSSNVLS

| Structure (SMILES) | Ki (Substance-P receptor [1]) [nM] | Kb (Substance-P receptor [2]) [nM] | ED50 (Gerbil, jird) [mg/kg] |
| --- | --- | --- | --- |
| O=C(c1cc(C(F)(F)F)cc(C(F)(F)F)c1)N1CCN(CC2=NOC(CN3CCOCC3)C2)C[C@H]1Cc1c[nH]c2ccccc12 (stereo not given in full) | 2.51 | 0.631 | 6.4 |
| O=C(c1cc(C(F)(F)F)cc(C(F)(F)F)c1)N1CCN(C/C(=N\OCCCN2CCOCC2)c2ccccc2)C[C@H]1Cc1c[nH]c2ccccc12 | 6.31 | 1.26 | > 10 |
| COc1ccccc1CNCCNC(=O)N1CCN(C(=O)c2cc(C(F)(F)F)cc(C(F)(F)F)c2)[C@H](Cc2c[nH]c3ccccc23)C1 | – | 1.26 | > 10 |
| C/C(CN1CCN(C(=O)c2cc(C(F)(F)F)cc(C(F)(F)F)c2)[C@H](Cc2c[nH]c3ccccc23)C1)=N/OCCN1CCN(C)CC1 | 1.58 | 1.58 | > 10 |
| O=C(c1cc(C(F)(F)F)cc(C(F)(F)F)c1)N1CCN(C/C=N\OCCCN2CCOCC2)C[C@H]1Cc1c[nH]c2ccccc12 | 1.26 | 0.631 | 2.3 |
| C/C(CN1CCN(C(=O)c2cc(C(F)(F)F)cc(C(F)(F)F)c2)[C@H](Cc2c[nH]c3ccccc23)C1)=N/OCCN | 0.794 | 0.158 | > 10 |
| CNCCO/N=C(/C)CN1CCN(C(=O)c2cc(C(F)(F)F)cc(C(F)(F)F)c2)[C@H](Cc2c[nH]c3ccccc23)C1 | 2 | 0.316 | > 10 |
| O=C(c1cc(C(F)(F)F)cc(C(F)(F)F)c1)N1CCN(CC/C(=N\OCCN2CCOCC2)c2ccccc2)C[C@H]1Cc1c[nH]c2ccccc12 | 10 | 1.26 | > 10 |
| C/C(CN1CCN(C(=O)c2cc(C(F)(F)F)cc(C(F)(F)F)c2)[C@H](Cc2c[nH]c3ccccc23)C1)=N/OCc1ccccn1 | 10 | 1.26 | 4.1 |
| C/C(CN1CCN(C(=O)c2cc(C(F)(F)F)cc(C(F)(F)F)c2)[C@H](Cc2c[nH]c3ccccc23)C1)=N/OCCN(C)C | 0.794 | 7.94 | > 10 |
| C/C(CCN1CCN(C(=O)c2cc(C(F)(F)F)cc(C(F)(F)F)c2)[C@H](Cc2c[nH]c3ccccc23)C1)=N/OCCCN1CCOCC1 | 0.2 | 1 | 5.5 |
| O=C(c1cc(C(F)(F)F)cc(C(F)(F)F)c1)N1CCN(C/C(=N\OCCN2CCOCC2)c2ccccc2)C[C@H]1Cc1c[nH]c2ccccc12 | 20 | 3.16 | – |
| C/C(CN1CCN(C(=O)c2cc(C(F)(F)F)cc(C(F)(F)F)c2)[C@H](Cc2c[nH]c3ccccc23)C1)=N/OCCN1CCS(=O)(=O)CC1 | 2.51 | 0.1 | > 10 |
| C/C(CN1CCN(C(=O)c2cc(C(F)(F)F)cc(C(F)(F)F)c2)[C@H](Cc2c[nH]c3ccccc23)C1)=N/OCCN1CCSCC1 | 6.31 | 1.26 | 10 |
| O=C(c1cc(C(F)(F)F)cc(C(F)(F)F)c1)N1CCN(C/C=N\OCCN2CCOCC2)C[C@H]1Cc1c[nH]c2ccccc12 | 1.26 | 0.631 | 2 |
| O=C(c1cc(C(F)(F)F)cc(C(F)(F)F)c1)N1CCN(Cc2cc(CN3CCOCC3)on2)C[C@H]1Cc1c[nH]c2ccccc12 | 12.6 | 0.794 | 4.6 |

Continued, in another order:

| Ki (Substance-P receptor [1]) [nM] | Kb (Substance-P receptor [2]) [nM] | Structure (SMILES) | ED50 (Gerbil, jird) [mg/kg] |
| --- | --- | --- | --- |
| 3.98 | 7.94 | CO/N=C(/C)CN1CCN(C(=O)c2cc(C(F)(F)F)cc(C(F)(F)F)c2)[C@H](Cc2c[nH]c3ccccc23)C1 | – |
| 0.398 | 1.26 | C/C(CCN1CCN(C(=O)c2cc(C(F)(F)F)cc(C(F)(F)F)c2)[C@H](Cc2c[nH]c3ccccc23)C1)=N/OCCN1CCOCC1 | 2 |
| 10 | 0.158 | C/C(CN1CCN(C(=O)c2cc(C(F)(F)F)cc(C(F)(F)F)c2)[C@H](Cc2c[nH]c3ccccc23)C1)=N/OCCN1CCOCC1 | 1.3 |
| 12.6 | 0.158 | C/C(CN1CCN(C(=O)c2cc(C(F)(F)F)cc(C(F)(F)F)c2)[C@H](Cc2c[nH]c3ccccc23)C1)=N/OCCCN1CCOCC1 | 7.4 |
| 6.31 | 5.01 | C/C(CN1CCN(C(=O)c2cc(C(F)(F)F)cc(C(F)(F)F)c2)[C@H](Cc2c[nH]c3ccccc23)C1)=N/OCC(C)(C)N1CCOCC1 | – |
| 1.26 | 1.58 | C/C(CCCN1CCN(C(=O)c2cc(C(F)(F)F)cc(C(F)(F)F)c2)[C@H](Cc2c[nH]c3ccccc23)C1)=N/OCCN1CCOCC1 | 2 |
| 3.16 | 2 | C/C(CN1CCN(C(=O)c2cc(C(F)(F)F)cc(C(F)(F)F)c2)[C@H](Cc2c[nH]c3ccccc23)C1)=N/OCC(C)N1CCOCC1 (stereo not given in full) | 2.6 |
